How the values were obtained:
Type in all cases: in vivo
[1] = test system: abutilon theophrasti; experiment: Herbicidal activity, pot culture method (primary and secondary screening test); conditions: sprayed at 3-leaf stage; for inhibition ratio, Abutilon theophrasti: investigated 15 days later; for herbicidal activity inhibition ratio (%), Abutilon theophrasti: primary screening, pot culture, 150 g/ha, result 15 days later
Outline: (§1)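 Percent growth inhibition of weeds sprayed at the 3-leaf stage, 150 g/ha in the primary screen and a lower dose in the secondary screen, scored 15 days after treatment under greenhouse conditions.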

[2] = test system: amaranthus retroflexus; experiment: as above; conditions: sprayed at 3-leaf stage; for inhibition ratio, Amaranthus retroflexus: investigated 15 days later; for herbicidal activity inhibition ratio (%), Amaranthus retroflexus: primary screening, pot culture, 150 g/ha, result 15 days later
Outline: as §1

[3] = test system: digitaria sanguinalis; experiment: as above; conditions: sprayed at 3-leaf stage; for inhibition ratio, Digitaria sanguinalis: investigated 15 days later; for herbicidal activity inhibition ratio (%), Digitaria sanguinalis: primary screening, pot culture, 150 g/ha, result 15 days later
Outline: as §1

[4] = test system: echinochloa crusgalli; experiment: as above; conditions: sprayed at 3-leaf stage; for inhibition ratio, Echinochloa crusgalli: investigated 15 days later; for herbicidal activity inhibition ratio (%), Echinochloa crusgalli: primary screening, pot culture, 150 g/ha, result 15 days later
Outline: as §1

[5] = test system: eclipta prostrata; experiment: as above; conditions: sprayed at 3-leaf stage; for inhibition ratio, Eclipta prostrata: investigated 15 days later; for herbicidal activity inhibition ratio (%), Eclipta prostrata: primary screening, pot culture, 150 g/ha, result 15 days later
Outline: as §1

[6] = test system: setaria viridis; experiment: as above; conditions: sprayed at 3-leaf stage; for inhibition ratio, Setaria viridis: investigated 15 days later; for herbicidal activity inhibition ratio (%), Setaria viridis: primary screening, pot culture, 150 g/ha, result 15 days later
Outline: as §1

[7] = test system: maize; experiment: Crop safety test (pot culture method); conditions: plants with about 4-5 leaves, investigated 15 days later
Excerpt: (§2) This test example is for describing crop safety of the compound with a structure shown in Formula (1). Crop safety test method (pot culture method): The test targets are wheat and maize. Take flowerpots with an inner diameter of 12 cm, put composite soil (vegetable garden soil:seedling matrix=1:2, v/v) into them till ¾ of flowerpot height, directly sow the crop seeds (budding rate>85%), cover them with 0.2 cm thick soil, and keep the plants for future use when they grow to have about 4-5 leaves. Each compound is dissolved in N,N-dimethylformamide at doses of 75 g/ha or 150 g/ha and diluted with distilled water containing 0.1% tween-80 emulsifier to form 0.1 g/L (75 g/ha) solution and 0.2 g/L (150 g/ha) solution respectively. The solutions are sprayed through an automatic spray tower. After the solutions on weed leaves are dried in the air, the flowerpots are moved into a greenhouse for cultivation. The result is investigated 15 days later.

[8] = test system: wheat; experiment: Crop safety test (pot culture method); conditions: plants with about 4-5 leaves, investigated 15 days later
Excerpt: as §2

Structure (SMILES) | inhibition ratio, Abutilon theophrasti ([1]; dose 37.5 g/ha) [%] | inhibition ratio, Abutilon theophrasti ([1]; dose 75 g/ha) [%] | herbicidal activity inhibition ratio (%), Abutilon theophrasti [1] [%] | inhibition ratio, Amaranthus retroflexus ([2]; dose 37.5 g/ha) [%] | inhibition ratio, Amaranthus retroflexus ([2]; dose 75 g/ha) [%] | herbicidal activity inhibition ratio (%), Amaranthus retroflexus [2] [%] | inhibition ratio, Digitaria sanguinalis ([3]; dose 37.5 g/ha) [%] | inhibition ratio, Digitaria sanguinalis ([3]; dose 75 g/ha) [%] | herbicidal activity inhibition ratio (%), Digitaria sanguinalis [3] [%] | inhibition ratio, Echinochloa crusgalli ([4]; dose 37.5 g/ha) [%] | inhibition ratio, Echinochloa crusgalli ([4]; dose 75 g/ha) [%] | herbicidal activity inhibition ratio (%), Echinochloa crusgalli [4] [%] | inhibition ratio, Eclipta prostrata ([5]; dose 37.5 g/ha) [%] | inhibition ratio, Eclipta prostrata ([5]; dose 75 g/ha) [%] | herbicidal activity inhibition ratio (%), Eclipta prostrata [5] [%] | inhibition ratio, Setaria viridis ([6]; dose 37.5 g/ha) [%] | inhibition ratio, Setaria viridis ([6]; dose 75 g/ha) [%] | herbicidal activity inhibition ratio (%), Setaria viridis [6] [%] | inhibition ratio, Maize (crop safety) ([7]; dose 75 g/ha) [%] | inhibition ratio, Maize (crop safety) ([7]; dose 150 g/ha) [%] | also measured
CCn1c(=O)n(-c2ccccc2C)c(=O)c2cc(C(=O)C3=C(O)CC(C)CC3=O)ccc21 (stereo not drawn) [Compound 70] | 50 | 73 | 100 | 50 | 70 | 98 | 80 | 75 | 90 | 40 | 55 | 100 | 60 | 78 | 100 | 83 | 93 | 100 | 0 | 15 | inhibition ratio, Wheat (crop safety) ([8]; dose 75 g/ha): 0%; inhibition ratio, Wheat (crop safety) ([8]; dose 150 g/ha): 10%
Cc1c(C(=O)C2=C(O)CC(C)(C)CC2=O)ccc2c1c(=O)n(-c1ccccc1C(F)(F)F)c(=O)n2C [Compound 91] | 85 | 93 | 100 | 60 | 80 | 100 | 70 | 90 | 100 | 65 | 90 | 100 | 80 | 93 | 100 | 100 | 100 | 100 | 0 | 10 | inhibition ratio, Wheat (crop safety) ([8]; dose 75 g/ha): 0%; inhibition ratio, Wheat (crop safety) ([8]; dose 150 g/ha): 10%
Cn1c(=O)n(-c2ccccc2Cl)c(=O)c2cc(C(=O)C3=C(O)CC(C)(C)CC3=O)ccc21 [Compound 6] | 70 | 70 | 100 | 70 | 75 | 80 | 60 | 70 | 75 | 70 | 75 | 80 | 70 | 70 | 85 | 60 | 60 | 90 | 0 | 15 | inhibition ratio, Wheat (crop safety) ([8]; dose 75 g/ha): 0%; inhibition ratio, Wheat (crop safety) ([8]; dose 150 g/ha): 0%

Reference: patent US9771334B2, “Triketone compound and preparation method and use thereof” (SHANDONG CYNDA CHEMICAL CO., LTD., priority 2013, dated 2017)
